Results as given in PubChem BioAssay (NCI).
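Exposure lasted 48 hours, with cells grown in 96-well plates and compounds tested at five concentrations. At the GI50, growth is halved. TGI: total growth inhibition.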

Key:
Test in all cases: NCI tumour cell line growth inhibition, 48 h; in the data active = GI50 below about 0.43 µM; inactive = the rest
786-0 renal = system: 786-0 renal
A498 renal = system: A498 renal
A549 NSCLC = system: A549 NSCLC
ACHN renal = system: ACHN renal
BT-549 breast = system: BT-549 breast
CAKI-1 renal = system: CAKI-1 renal
CCRF-CEM leukemia = system: CCRF-CEM leukemia
COLO 205 colon = system: COLO 205 colon
DU-145 prostate = system: DU-145 prostate
HCC-2998 colon = system: HCC-2998 colon
HCT-116 colon = system: HCT-116 colon
HCT-15 colon = system: HCT-15 colon
HL-60(TB) leukemia = system: HL-60(TB) leukemia
HOP-62 NSCLC = system: HOP-62 NSCLC
HOP-92 NSCLC = system: HOP-92 NSCLC
HS 578T breast = system: HS 578T breast
HT29 colon = system: HT29 colon
IGROV1 ovarian = system: IGROV1 ovarian
K-562 leukemia = system: K-562 leukemia
KM12 colon = system: KM12 colon
LOX IMVI melanoma = system: LOX IMVI melanoma
M14 melanoma = system: M14 melanoma
MALME-3M melanoma = system: MALME-3M melanoma
MCF7 breast = system: MCF7 breast
MDA-MB-231 breast = system: MDA-MB-231 breast
MDA-MB-435 = system: MDA-MB-435
MOLT-4 leukemia = system: MOLT-4 leukemia
NCI-H226 lung = system: NCI-H226 lung
NCI-H23 lung = system: NCI-H23 lung
NCI-H460 lung = system: NCI-H460 lung
NCI-H522 lung = system: NCI-H522 lung
NCI/ADR-RES ovarian = system: NCI/ADR-RES ovarian
OVCAR-3 ovarian = system: OVCAR-3 ovarian
OVCAR-4 ovarian = system: OVCAR-4 ovarian
OVCAR-5 ovarian = system: OVCAR-5 ovarian
OVCAR-8 ovarian = system: OVCAR-8 ovarian
PC-3 prostate = system: PC-3 prostate
RPMI-8226 leukemia = system: RPMI-8226 leukemia
RXF 393 renal = system: RXF 393 renal
SF-268 CNS = system: SF-268 CNS
SF-295 CNS = system: SF-295 CNS
SF-539 CNS = system: SF-539 CNS
SK-MEL-2 melanoma = system: SK-MEL-2 melanoma
SK-MEL-28 melanoma = system: SK-MEL-28 melanoma
SK-MEL-5 melanoma = system: SK-MEL-5 melanoma
SK-OV-3 ovarian = system: SK-OV-3 ovarian
SN12C renal = system: SN12C renal
SNB-19 CNS = system: SNB-19 CNS
SNB-75 CNS = system: SNB-75 CNS
SR leukemia = system: SR leukemia
SW-620 colon = system: SW-620 colon
T-47D breast = system: T-47D breast
TK-10 renal = system: TK-10 renal
U251 CNS = system: U251 CNS
UACC-257 melanoma = system: UACC-257 melanoma
UACC-62 melanoma = system: UACC-62 melanoma
UO-31 renal = system: UO-31 renal

CC(=O)c1nc2ccccc2n1CCN1CCN(C)CC1
18.6 µM: TGI (RXF 393 renal)
> 100 µM: TGI (786-0 renal) | TGI (A549 NSCLC) | TGI (ACHN renal) | TGI (BT-549 breast) | TGI (CAKI-1 renal) | TGI (CCRF-CEM leukemia) | TGI (HCT-116 colon) | TGI (HCT-15 colon) | TGI (HOP-62 NSCLC) | TGI (IGROV1 ovarian) | TGI (K-562 leukemia) | TGI (KM12 colon) | TGI (LOX IMVI melanoma) | TGI (MALME-3M melanoma) | TGI (MCF7 breast) | TGI (MOLT-4 leukemia) | TGI (NCI-H226 lung) | TGI (NCI-H23 lung) | TGI (NCI-H460 lung) | TGI (NCI/ADR-RES ovarian) | TGI (OVCAR-4 ovarian) | TGI (OVCAR-5 ovarian) | TGI (OVCAR-8 ovarian) | TGI (PC-3 prostate) | TGI (RPMI-8226 leukemia) | TGI (SF-268 CNS) | TGI (SK-MEL-28 melanoma) | TGI (SK-MEL-5 melanoma) | TGI (SN12C renal) | TGI (SNB-19 CNS) | TGI (SR leukemia) | TGI (SW-620 colon) | TGI (T-47D breast) | TGI (U251 CNS) | TGI (UACC-257 melanoma) | TGI (UACC-62 melanoma) | TGI (UO-31 renal)
> 52.7 µM: TGI (A498 renal)
15.4 µM: TGI (SF-295 CNS)
84.3 µM: TGI (TK-10 renal)
> 50.4 µM: TGI (SF-539 CNS)
12.3 µM: TGI (DU-145 prostate)
25.9 µM: TGI (HS 578T breast)
inactive: GI50 (786-0 renal) 17.6 µM | GI50 (A498 renal) 3.46 µM | GI50 (A549 NSCLC) 2.63 µM | GI50 (ACHN renal) 23.4 µM | GI50 (BT-549 breast) 6.21 µM | GI50 (CAKI-1 renal) 34.1 µM | GI50 (CCRF-CEM leukemia) 3.29 µM | GI50 (COLO 205 colon) 1.89 µM | GI50 (DU-145 prostate) 2.79 µM | GI50 (HCC-2998 colon) 3.63 µM | GI50 (HCT-116 colon) 1.2 µM | GI50 (HCT-15 colon) 25 µM | GI50 (HL-60(TB) leukemia) 2.62 µM | GI50 (HOP-62 NSCLC) 3.57 µM | GI50 (HS 578T breast) 2.15 µM | GI50 (HT29 colon) 0.639 µM | GI50 (IGROV1 ovarian) 4.83 µM | GI50 (K-562 leukemia) 3.95 µM | GI50 (KM12 colon) 3.06 µM | GI50 (LOX IMVI melanoma) 2.6 µM | GI50 (M14 melanoma) 2.66 µM | GI50 (MALME-3M melanoma) 2.38 µM | GI50 (MCF7 breast) 1.16 µM | GI50 (MDA-MB-231 breast) 2.98 µM | GI50 (MOLT-4 leukemia) 8.2 µM | GI50 (NCI-H226 lung) 31.5 µM | GI50 (NCI-H23 lung) 6.01 µM | GI50 (NCI-H460 lung) 2.3 µM | GI50 (NCI-H522 lung) 1.8 µM | GI50 (NCI/ADR-RES ovarian) 61.1 µM | GI50 (OVCAR-3 ovarian) 2.6 µM | GI50 (OVCAR-4 ovarian) 15.7 µM | GI50 (OVCAR-5 ovarian) 3.5 µM | GI50 (OVCAR-8 ovarian) 3.76 µM | GI50 (PC-3 prostate) 2.41 µM | GI50 (RPMI-8226 leukemia) 1.9 µM | GI50 (RXF 393 renal) 1.59 µM | GI50 (SF-268 CNS) 4.63 µM | GI50 (SF-295 CNS) 2.12 µM | GI50 (SF-539 CNS) 2.28 µM | GI50 (SK-MEL-2 melanoma) 3.28 µM | GI50 (SK-MEL-28 melanoma) 7.15 µM | GI50 (SK-MEL-5 melanoma) 3.13 µM | GI50 (SK-OV-3 ovarian) 3.61 µM | GI50 (SN12C renal) 4.21 µM | GI50 (SNB-19 CNS) 17.3 µM | GI50 (SR leukemia) 1.32 µM | GI50 (SW-620 colon) 2.8 µM | GI50 (T-47D breast) 2.97 µM | GI50 (TK-10 renal) 11.5 µM | GI50 (U251 CNS) 3.82 µM | GI50 (UACC-257 melanoma) 5.47 µM | GI50 (UACC-62 melanoma) 4.11 µM | GI50 (UO-31 renal) 9.35 µM
> 26.2 µM: TGI (HL-60(TB) leukemia)
> 26 µM: TGI (OVCAR-3 ovarian)
26.9 µM: TGI (HCC-2998 colon)
1.57 µM: TGI (SNB-75 CNS)
47.6 µM: TGI (SK-MEL-2 melanoma)
10.4 µM: TGI (HT29 colon)
> 95.8 µM: TGI (MDA-MB-231 breast)
59.5 µM: TGI (SK-OV-3 ovarian)
> 41.6 µM: TGI (M14 melanoma)
6.39 µM: TGI (COLO 205 colon)
active: GI50 (HOP-92 NSCLC) 0.416 µM | GI50 (MDA-MB-435) 0.373 µM | GI50 (SNB-75 CNS) 0.0668 µM
6.11 µM: TGI (NCI-H522 lung)
1.69 µM: TGI (MDA-MB-435)
